Measured values taken from patent publication US20260007758A1, “SO[…]-2 RECEPTOR (SST2R) NON-PEPTIDE DRUG CONJUGATES AND USES THEREOF” (Crinetics Pharmaceuticals, Inc., priority 2024, published 2026).

How the values were obtained:
Assay type in all cases: cell-based
[1] = test system: NCI-H524 human small cell lung cancer cells; assay: H524 assay: inhibition of cell proliferation (CellTiter Glo); conditions: 2 h treatment, washout, additional 70 h incubation
Method in brief: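 NCI-H524 cells were exposed for 2 h to NDC in an 11-point two-fold series starting at 1 uM. The drug was then washed out and cells grew a further 70 h. CellTiter Glo luminescence gave % inhibition versus untreated control, and IC50 came from a four-parameter nonlinear regression.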

[2] = molecular target: T1, human somatostatin receptor subtype 2 (Homo sapiens, UniProt P30874); assay: Functional assay for SSTR2 agonists (HTRF cAMP); conditions: CHO-K1 cells stably expressing human SST2; NKH477-stimulated cAMP; 20 min at 37 C; read-out: hSST2 cAMP Avg EC50
T1 construct: expressed in transfected cells
T1 sequence (P30874 whole entry): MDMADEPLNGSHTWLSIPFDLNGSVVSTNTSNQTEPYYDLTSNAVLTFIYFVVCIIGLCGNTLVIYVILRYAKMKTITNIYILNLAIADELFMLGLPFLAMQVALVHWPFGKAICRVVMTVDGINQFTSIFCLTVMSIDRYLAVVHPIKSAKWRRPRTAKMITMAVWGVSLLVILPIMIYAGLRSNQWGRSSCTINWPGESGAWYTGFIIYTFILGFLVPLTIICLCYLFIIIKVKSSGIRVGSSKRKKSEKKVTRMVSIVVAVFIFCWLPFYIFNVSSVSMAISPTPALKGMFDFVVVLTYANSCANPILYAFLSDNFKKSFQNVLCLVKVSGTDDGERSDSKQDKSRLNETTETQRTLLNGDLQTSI
Method in brief: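 CHO-K1 cells stably expressing human SSTR2 treated with compound (typically 0-10,000 nM final) for 20 min at 37 °C. Lysate cAMP measured by HTRF (665/620 nm ratio), converted via standard curve; EC50 from cAMP vs concentration.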

SST2 = molecular target: T2, SST2 (Homo sapiens, UniProt P30874); assay: PathHunter CHO-K1 SST2 Internalization Assay; conditions: PathHunter CHO-K1 SST2 cells; 90 min at 37 C; luminescence; read-out: Internalization EC50
T2 construct: host or cells: PathHunter CHO-K1 SST2 cells
T2 sequence (P30874 whole entry): as above
Method in brief: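 CHO-K1 cells expressing human SST2, 2500 cells/well, grown 48 h, then exposed 90 min at 37 C to 11-point 1:3 NDC dilutions (final top 10 uM). Beta-Glo luminescence after 60 min at room temperature; four-parameter IC50, duplicate mean, background-corrected.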

Row | Compound | EC50 [1] [nM] | EC50 [2] [nM] | EC50 (SST2) [nM]
1 | CC[C@H](C)[C@@H]([C@@H](CC(=O)N1CCC[C@H]1[C@H](OC)[C@@H](C)C(=O)N[C@H](C)[C@@H](O)c1ccccc1)OC)N(C)C(=O)[C@@H](NC(=O)[C@H](C(C)C)N(C)C(=O)OCc1ccc(NC(=O)[C@H](CCCNC(N)=O)NC(=O)[C@@H](NC(=O)CCOCCC(=O)NCCNc2ncc(-c3cc(C)cc(F)c3)c(N3CCC(N)CC3)c2-c2nc3ccc(Cl)cc3[nH]2)C(C)C)c(O[C@@H]2O[C@H](C(=O)NCCNC(=O)CCC(=O)NS(=O)(=O)c3ccc4ccccc4c3)[C@@H](O)[C@H](O)[C@H]2O)c1)C(C)C [Compound 224] | 27 | 0.068 | 3.2
2 | CC[C@H](C)[C@@H]([C@@H](CC(=O)N1CCC[C@H]1[C@H](OC)[C@@H](C)C(=O)N[C@H](C)[C@@H](O)c1ccccc1)OC)N(C)C(=O)[C@@H](NC(=O)[C@H](C(C)C)N(C)C(=O)OCc1ccc(NC(=O)[C@H](CCCNC(N)=O)NC(=O)[C@@H](NC(=O)c2cc(NCCOCCC(=O)NCCNc3ncc(-c4cc(C)cc(F)c4)c(N4CCC(N)CC4)c3-c3nc4cc(F)cc(OC)c4[nH]3)cc(C(=O)NCC(=O)O)c2)C(C)C)cc1)C(C)C [Compound 166] | 18 | 0.29 | 4.5
3 | CC[C@H](C)[C@@H]([C@@H](CC(=O)N1CCC[C@H]1[C@H](OC)[C@@H](C)C(=O)N[C@H](C)[C@@H](O)c1ccccc1)OC)N(C)C(=O)[C@@H](NC(=O)[C@H](C(C)C)N(C)C(=O)OCc1ccc(NC(=O)[C@H](CCCNC(N)=O)NC(=O)[C@@H](NC(=O)c2cc(OCCOCCC(=O)NCCNc3ncc(-c4cc(C)cc(F)c4)c(N4CCC(N)CC4)c3-c3nc4ccc(Cl)cc4[nH]3)cc(C(=O)NCC(=O)O)c2)C(C)C)cc1)C(C)C [Compound 160] | 100 | 0.25 | 7.4
4 | CC[C@H](C)[C@@H]([C@@H](CC(=O)N1CCCC1[C@H](OC)[C@@H](C)C(=O)N[C@H](C)[C@@H](O)c1ccccc1)OC)N(C)C(=O)[C@@H](NC(=O)[C@H](C(C)C)N(C)C(=O)OCc1ccc(NC(=O)[C@H](CCCNC(N)=O)NC(=O)[C@@H](NC(=O)[C@H](Cc2c[nH]cn2)NC(=O)CCOCCC(=O)NCCNc2ncc(-c3cc(C)cc(F)c3)c(N3CCC(N)CC3)c2-c2nc3ccc(Cl)cc3[nH]2)C(C)C)c(OCC(=O)O)c1)C(C)C (stereo partly drawn) [Compound 202] | 14 | 0.14 | 4.6
5 | CC[C@H](C)[C@@H]([C@@H](CC(=O)N1CCC[C@H]1[C@H](OC)[C@@H](C)C(=O)N[C@H](C)[C@@H](O)c1ccccc1)OC)N(C)C(=O)[C@@H](NC(=O)[C@H](C(C)C)N(C)C(=O)OCc1ccc(NC(=O)[C@H](CCCNC(N)=O)NC(=O)[C@@H](NC(=O)c2cc(NC(=O)CCCC(=O)N(C)CC(=O)NCCNc3ncc(-c4cc(C)cc(F)c4)c(N4CCC(N)CC4)c3-c3nc4ccc(F)cc4[nH]3)cc(C(=O)NCC(=O)O)c2)C(C)C)cc1)C(C)C [Compound 169] | 32 | 0.1 | 10
6 | CC[C@H](C)[C@@H]([C@@H](CC(=O)N1CCC[C@H]1[C@H](OC)[C@@H](C)C(=O)N[C@H](C)[C@@H](O)c1ccccc1)OC)N(C)C(=O)[C@@H](NC(=O)[C@H](C(C)C)N(C)C(=O)OCc1ccc(NC(=O)[C@H](CCCNC(N)=O)NC(=O)[C@@H](NC(=O)c2cc(C(=O)NCC(=O)O)cc(N(C)CCOCCOCCOCCOCCC(=O)NCCNc3ncc(-c4cc(C)cc(F)c4)c(N4CCC(N)CC4)c3-c3nc4ccc(Cl)cc4[nH]3)c2)C(C)C)cc1)C(C)C [Compound 159] | 130 | 1.2 | 23
7 | CC[C@H](C)[C@@H]([C@@H](CC(=O)N1CCC[C@H]1[C@H](OC)[C@@H](C)C(=O)N[C@H](C)[C@@H](O)c1ccccc1)OC)N(C)C(=O)[C@@H](NC(=O)[C@H](C(C)C)N(C)C(=O)OCc1ccc(NC(=O)[C@H](CCCNC(N)=O)NC(=O)[C@@H](NC(=O)C[C@@H](N)C(=O)NCCOCCC(=O)NCCNc2ncc(-c3cc(C)cc(F)c3)c(N3CCC(N)CC3)c2-c2nc3ccc(Cl)cc3[nH]2)C(C)C)c(O[C@@H]2O[C@H](C(=O)O)[C@@H](O)[C@H](O)[C@H]2O)c1)C(C)C [Compound 92] | 680 | 0.2 | 2.5
8 | CC[C@H](C)[C@@H]([C@@H](CC(=O)N1CCC[C@H]1[C@H](OC)[C@@H](C)C(=O)N[C@H](C)[C@@H](O)c1ccccc1)OC)N(C)C(=O)[C@@H](NC(=O)[C@H](C(C)C)N(C)C(=O)OCc1ccc(NC(=O)[C@H](C)NC(=O)[C@@H](NC(=O)CCOCCC(=O)NCCNc2ncc(-c3cc(C)cc(F)c3)c(N3CCC(N)CC3)c2-c2nc3cc(F)cc(OC)c3[nH]2)C(C)C)c(O[C@@H]2O[C@H](C(=O)O)[C@@H](O)[C@H](O)[C@H]2O)c1)C(C)C [Compound 140] | 6.6 | 0.15 | 2.9
9 | CC[C@H](C)[C@@H]([C@@H](CC(=O)N1CCC[C@H]1[C@H](OC)[C@@H](C)C(=O)N[C@H](C)[C@@H](O)c1ccccc1)OC)N(C)C(=O)[C@@H](NC(=O)[C@H](C(C)C)N(C)C(=O)OCc1ccc(NC(=O)[C@H](CCCNC(N)=O)NC(=O)[C@@H](NC(=O)[C@H](CCC(=O)O)NC(=O)CCOCCC(=O)NCCNc2ncc(-c3cc(C)cc(F)c3)c(N3CCC(N)CC3)c2-c2nc3ccc(Cl)cc3[nH]2)C(C)C)cc1C(=O)NOC)C(C)C [Compound 89] | 1100 | 0.57 | 3.6
10 | CC[C@H](C)[C@@H]([C@@H](CC(=O)N1CCC[C@H]1[C@H](OC)[C@@H](C)C(=O)N[C@H](C)[C@@H](O)c1ccccc1)OC)N(C)C(=O)[C@@H](NC(=O)[C@H](C(C)C)N(C)C(=O)OCc1ccc(NC(=O)[C@H](CCCNC(N)=O)NC(=O)[C@@H](NC(=O)CCOCCC(=O)NCCNc2ncc(-c3cc(C)cc(F)c3)c(N3CCC(N)CC3)c2-c2nc3ccc(Cl)cc3[nH]2)C(C)C)c(O[C@@H]2O[C@H](C(=O)NCC(=O)NCCCCCCO[PH](=O)OC3CCC(c4ccccc4)(c4ccccc4)CC3)[C@@H](O)[C@H](O)[C@H]2O)c1)C(C)C (stereo partly drawn) [Compound 234] | 140 | 0.55 | 6.6
11 | CC[C@H](C)[C@@H]([C@@H](CC(=O)N1CCC[C@H]1[C@H](OC)[C@@H](C)C(=O)N[C@H](C)[C@@H](O)c1ccccc1)OC)N(C)C(=O)[C@@H](NC(=O)[C@H](C(C)C)N(C)C(=O)OCc1ccc(NC(=O)[C@H](CCCNC(N)=O)NC(=O)[C@@H](NC(=O)CCOCCC(=O)NCCNc2ncc(-c3cc(C)cc(F)c3)c(N3CCC(N)CC3)c2-c2nc3ccc(Cl)cc3[nH]2)C(C)C)c(OCC(=O)O)c1)C(C)C [Compound 18] | 7.8 | 0.097 | 6.4
12 | CC[C@H](C)[C@@H]([C@@H](CC(=O)N1CCC[C@H]1[C@H](OC)[C@@H](C)C(=O)N[C@H](C)[C@@H](O)c1ccccc1)OC)N(C)C(=O)[C@@H](NC(=O)[C@H](C(C)C)N(C)C(=O)OCc1ccc(NC(=O)[C@H](C)NC(=O)[C@@H](NC(=O)CCOCCC(=O)NCCNc2ncc(-c3cc(C)cc(F)c3)c(N3CCC(N)CC3)c2-c2cc3ccc(C#N)cc3[nH]2)C(C)C)c(O[C@@H]2O[C@H](C(=O)O)[C@@H](O)[C@H](O)[C@H]2O)c1)C(C)C [Compound 119] | 34 | 0.11 | 11
